{
  "source": "patent US10201530B2",
  "about": "“Treatment of BRCA1-defective cancer or resistant cancers” (City of Hope, priority 2014, dated 2019)",
  "key": {"OV90": {"system": "OV90", "test": "Cytotoxicity (MTT/DIMSCAN), OV90 cells", "type": "cell-based, human", "conditions": "Homo sapiens, OV-90; OV90, wild-type BRCA1 ovarian cancer cells; COH29 72 h; read-out: IC50, mean ± SEM", "procedure": "(§1) All cell lines were acquired from the American Type Culture Collection (Manassas, Va., USA). Cells were maintained in RPMI 1640 medium (Mediatech) with 10% fetal bovine serum, 2 mM glutamine, and 100 U of penicillin and 100 μg of streptomycin per ml of medium (Sigma) at 37° C. in 5% CO2. To isolate HCC1437+BRCA1 cells, parental HCC1937 cells were transfected with pcDNA3.1 plasmid expressing full-length BRCA1 cDNA. Stable transfectant clones were selected and used for drug sensitivity assays. For stable transfection, cells at 30-40% confluence were incubated overnight with […] of plasmid DNA, using FUGENE® 6 transfectin reagent (Roche Molecular Biochemical, Monza, Italy) according to the manufacturer's instructions. Cells were then selected in puromycin (1 μg/ml) (Invitrogen life Technologies, La Jolla, Calif., USA.) After 20 to 30 days, viable puromycin-resistant colonies from HCC1937 transfections were expanded and screened. The clones that stably expressed […] and retained growth potential were assayed for BRCA1 expression by Western blot analysis. By Western blot analysis, we evaluated the restoration of BRCA1 expression in the puromycin-resistant cDNA/transfectant cells.\nThe MTT cytotoxicity assay was performed by incubating with MTT and monitoring the MTT formazan formed by viable cells with a microplate reader at a wavelength of 560 nm; the survival, ratio was determined using the formula: (Atest−Ablank)/(Acontrol−Ablank)×100%. The cytotoxicity was determined in 96-well plates using the semiautomatic fluorescence-based Digital Imaging Microscopy System (DIMSCAN). DIMSCAN uses digital imaging microscopy to quantify viable cells, which selectively accumulate FDA (fluorescein diacetate; Alfa Aesar, Ward Hill, Mass.). DIMSCAN is capable of measuring cytotoxicity over a 4 log dynamic range by quantifying total fluorescence per well (which is proportional to the number of viable cells) after elimination of the background fluorescence by digital thresholding and eosin Y (Mallinckrodt Baker, Center Valley, Pa.) quenching. Cells were seeded into 96-well plates in 100 μL of complete medium at 2,000 to 5,000 cells per well depending on cell line growth rate. After overnight incubation, test compound was added to each well at various concentrations in 50 μL of culture medium. […] Total fluorescence per well was then measured using DIMSCAN, and the results were expressed as the ratio of the fluorescence in treated wells to the fluorescence in untreated wells (survival fraction)."}, "OVCAR-3": {"system": "OVCAR-3", "test": "Cytotoxicity, OVCAR-3 cells", "type": "cell-based, human", "conditions": "Homo sapiens, read-out: IC50, mean ± SEM", "procedure": "as §1\nThe MTT cytotoxicity assay was performed by incubating with MTT and monitoring the MTT formazan formed by viable cells with a microplate reader at a wavelength of 560 nm; the survival, ratio was determined using the formula: (Atest−Ablank)/(Acontrol−Ablank)×100%. The cytotoxicity was determined in 96-well plates using the semiautomatic fluorescence-based Digital Imaging Microscopy System (DIMSCAN). DIMSCAN uses digital imaging microscopy to quantify viable cells, which selectively accumulate FDA (fluorescein diacetate; Alfa Aesar, Ward Hill, Mass.). DIMSCAN is capable of measuring cytotoxicity over a 4 log dynamic range by quantifying total fluorescence per well (which is proportional to the number of viable cells) after elimination of the background fluorescence by digital thresholding and eosin Y (Mallinckrodt Baker, Center Valley, Pa.) quenching. Cells were seeded into 96-well plates in 100 μL of complete medium at 2,000 to 5,000 cells per well depending on cell line growth rate. After overnight incubation, test compound was added to each well at various concentrations in 50 μL of culture medium. After incubation with the drugs for 96 hours at 37° C., FDA (final concentration: […]) and eosin Y [final concentration: 0.1% (w/v)] were added to each well and the cells were incubated for an additional 20 minutes at 37° C. Total fluorescence per well was then measured using DIMSCAN, and the results were expressed as the ratio of the fluorescence in treated wells to the fluorescence in untreated wells (survival fraction)."}},
  "data": [
    {"smiles": "O=C(Nc1nc(-c2ccc(O)c(O)c2)c(-c2ccccc2)s1)c1ccc(O)c(O)c1", "note": "[COH29]", "values": [
      {"measurement": "IC50", "setting": "OV90", "value": "31.6 ± 3.35", "unit": "µM"},
      {"measurement": "IC50", "setting": "OVCAR-3", "value": "20.5 ± 0.81", "unit": "µM"}
    ]}
  ]
}
